Test [1] concerns the target ErbB2 WT (Homo sapiens (Human), UniProt P04626). Kind of test: ErbB Enzyme Assay (HTRF KinEASE-TK), Assay 2. Type of test: biochemical.
For test [2], the target named is ErbB2 with Exon 20 YVMA insertion (HER2-YVMA) (Homo sapiens (Human), UniProt P04626, INS775YVMA). Kind of test: Cellular Phosphorylation Assay, Assay 4 (constitutive ErbB2 phosphorylation, NIH 3T3 cells). Type of test: cell-based.
Test [3] has as its target EGFR wild type (EGFR WT) (Homo sapiens (Human), UniProt P00533). Kind of test: Cellular Phosphorylation Assay, Assay 5 (EGF-stimulated EGFR phosphorylation, NIH 3T3 cells). Format: cell-based.
The target in test [4] is EGFR (Homo sapiens (Human), UniProt P00533). Nature of the test: ErbB Enzyme Assay (HTRF KinEASE-TK), Assay 3. Type of test: biochemical.
EGFR, sequence (P00533 25-1210): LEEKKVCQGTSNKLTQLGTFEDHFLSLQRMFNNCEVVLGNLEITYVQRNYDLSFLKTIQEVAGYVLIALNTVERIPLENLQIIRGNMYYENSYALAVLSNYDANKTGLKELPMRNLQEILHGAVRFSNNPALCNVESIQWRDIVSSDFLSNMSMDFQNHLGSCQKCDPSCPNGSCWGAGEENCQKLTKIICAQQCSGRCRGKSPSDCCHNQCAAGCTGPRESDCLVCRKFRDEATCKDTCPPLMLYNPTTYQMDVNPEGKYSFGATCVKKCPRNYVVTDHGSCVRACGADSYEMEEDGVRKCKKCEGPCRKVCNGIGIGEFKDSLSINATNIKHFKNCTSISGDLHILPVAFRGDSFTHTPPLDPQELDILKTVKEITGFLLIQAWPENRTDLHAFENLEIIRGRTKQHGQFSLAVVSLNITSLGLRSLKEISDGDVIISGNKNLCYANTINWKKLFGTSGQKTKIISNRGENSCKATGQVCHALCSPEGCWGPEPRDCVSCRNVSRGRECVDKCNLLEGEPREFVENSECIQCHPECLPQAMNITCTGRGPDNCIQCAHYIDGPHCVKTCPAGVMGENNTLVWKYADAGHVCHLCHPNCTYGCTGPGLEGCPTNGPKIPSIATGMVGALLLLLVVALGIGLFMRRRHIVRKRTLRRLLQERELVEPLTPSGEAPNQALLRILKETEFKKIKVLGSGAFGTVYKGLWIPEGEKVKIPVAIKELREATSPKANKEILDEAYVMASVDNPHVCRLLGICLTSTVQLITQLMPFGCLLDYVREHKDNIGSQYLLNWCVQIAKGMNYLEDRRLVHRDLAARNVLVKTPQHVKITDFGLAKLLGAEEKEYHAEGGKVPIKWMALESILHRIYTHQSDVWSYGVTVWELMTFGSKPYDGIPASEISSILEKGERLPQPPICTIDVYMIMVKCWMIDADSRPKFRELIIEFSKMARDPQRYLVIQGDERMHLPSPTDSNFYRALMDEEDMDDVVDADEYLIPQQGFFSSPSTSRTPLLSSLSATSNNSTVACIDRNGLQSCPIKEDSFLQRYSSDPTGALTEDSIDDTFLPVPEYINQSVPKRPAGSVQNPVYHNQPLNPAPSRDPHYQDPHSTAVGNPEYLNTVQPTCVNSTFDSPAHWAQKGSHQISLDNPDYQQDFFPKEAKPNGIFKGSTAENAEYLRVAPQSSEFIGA
Setting [5] is: EGF-stimulated EGFR WT phosphorylation.
[6] abbreviates: cellular ErbB2 YVMA phosphorylation.
The mark [7] stands for this setting: cellular EGFR WT phosphorylation, EGF-stimulated.

SMILES strings stand for the structures. pIC50: −log10 of the molar value.

ErbB2 WT, sequence (P04626 23-1255): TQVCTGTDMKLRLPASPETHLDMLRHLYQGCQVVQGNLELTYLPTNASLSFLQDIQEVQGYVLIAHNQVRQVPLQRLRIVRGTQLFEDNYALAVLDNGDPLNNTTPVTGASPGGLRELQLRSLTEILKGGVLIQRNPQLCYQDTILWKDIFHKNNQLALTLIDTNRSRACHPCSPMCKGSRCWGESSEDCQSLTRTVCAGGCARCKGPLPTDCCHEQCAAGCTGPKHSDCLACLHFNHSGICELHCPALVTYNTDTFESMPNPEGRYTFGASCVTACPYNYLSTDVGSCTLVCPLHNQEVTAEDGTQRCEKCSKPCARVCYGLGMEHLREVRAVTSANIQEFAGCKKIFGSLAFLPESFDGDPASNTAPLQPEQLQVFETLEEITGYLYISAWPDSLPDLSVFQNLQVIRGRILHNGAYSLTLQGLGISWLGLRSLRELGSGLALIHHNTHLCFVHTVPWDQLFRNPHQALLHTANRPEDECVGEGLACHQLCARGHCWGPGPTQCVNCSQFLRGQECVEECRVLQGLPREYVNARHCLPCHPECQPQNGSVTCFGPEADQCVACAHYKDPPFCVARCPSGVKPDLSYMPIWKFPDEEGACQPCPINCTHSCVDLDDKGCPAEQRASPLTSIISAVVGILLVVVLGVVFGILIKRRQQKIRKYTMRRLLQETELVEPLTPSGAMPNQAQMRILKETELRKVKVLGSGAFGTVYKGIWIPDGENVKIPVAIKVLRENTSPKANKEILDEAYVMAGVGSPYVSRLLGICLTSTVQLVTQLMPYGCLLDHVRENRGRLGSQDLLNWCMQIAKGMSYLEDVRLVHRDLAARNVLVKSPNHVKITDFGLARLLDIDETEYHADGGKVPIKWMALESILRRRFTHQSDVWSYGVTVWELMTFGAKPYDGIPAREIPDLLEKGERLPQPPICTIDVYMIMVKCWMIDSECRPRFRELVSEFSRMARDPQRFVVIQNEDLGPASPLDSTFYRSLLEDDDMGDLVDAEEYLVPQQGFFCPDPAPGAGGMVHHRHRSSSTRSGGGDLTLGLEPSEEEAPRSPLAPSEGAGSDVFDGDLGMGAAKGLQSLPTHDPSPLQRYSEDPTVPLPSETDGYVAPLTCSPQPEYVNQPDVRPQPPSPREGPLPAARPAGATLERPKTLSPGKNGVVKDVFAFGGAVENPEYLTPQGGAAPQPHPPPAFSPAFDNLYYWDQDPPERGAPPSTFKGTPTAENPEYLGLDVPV
EGFR wild type (EGFR WT), sequence (P00533 25-1210): as the sequence (P00533 25-1210) above
ErbB2 with Exon 20 YVMA insertion (HER2-YVMA), sequence (P04626 other isoform, or with tags, fused parts or gaps ins YVMA behind 775): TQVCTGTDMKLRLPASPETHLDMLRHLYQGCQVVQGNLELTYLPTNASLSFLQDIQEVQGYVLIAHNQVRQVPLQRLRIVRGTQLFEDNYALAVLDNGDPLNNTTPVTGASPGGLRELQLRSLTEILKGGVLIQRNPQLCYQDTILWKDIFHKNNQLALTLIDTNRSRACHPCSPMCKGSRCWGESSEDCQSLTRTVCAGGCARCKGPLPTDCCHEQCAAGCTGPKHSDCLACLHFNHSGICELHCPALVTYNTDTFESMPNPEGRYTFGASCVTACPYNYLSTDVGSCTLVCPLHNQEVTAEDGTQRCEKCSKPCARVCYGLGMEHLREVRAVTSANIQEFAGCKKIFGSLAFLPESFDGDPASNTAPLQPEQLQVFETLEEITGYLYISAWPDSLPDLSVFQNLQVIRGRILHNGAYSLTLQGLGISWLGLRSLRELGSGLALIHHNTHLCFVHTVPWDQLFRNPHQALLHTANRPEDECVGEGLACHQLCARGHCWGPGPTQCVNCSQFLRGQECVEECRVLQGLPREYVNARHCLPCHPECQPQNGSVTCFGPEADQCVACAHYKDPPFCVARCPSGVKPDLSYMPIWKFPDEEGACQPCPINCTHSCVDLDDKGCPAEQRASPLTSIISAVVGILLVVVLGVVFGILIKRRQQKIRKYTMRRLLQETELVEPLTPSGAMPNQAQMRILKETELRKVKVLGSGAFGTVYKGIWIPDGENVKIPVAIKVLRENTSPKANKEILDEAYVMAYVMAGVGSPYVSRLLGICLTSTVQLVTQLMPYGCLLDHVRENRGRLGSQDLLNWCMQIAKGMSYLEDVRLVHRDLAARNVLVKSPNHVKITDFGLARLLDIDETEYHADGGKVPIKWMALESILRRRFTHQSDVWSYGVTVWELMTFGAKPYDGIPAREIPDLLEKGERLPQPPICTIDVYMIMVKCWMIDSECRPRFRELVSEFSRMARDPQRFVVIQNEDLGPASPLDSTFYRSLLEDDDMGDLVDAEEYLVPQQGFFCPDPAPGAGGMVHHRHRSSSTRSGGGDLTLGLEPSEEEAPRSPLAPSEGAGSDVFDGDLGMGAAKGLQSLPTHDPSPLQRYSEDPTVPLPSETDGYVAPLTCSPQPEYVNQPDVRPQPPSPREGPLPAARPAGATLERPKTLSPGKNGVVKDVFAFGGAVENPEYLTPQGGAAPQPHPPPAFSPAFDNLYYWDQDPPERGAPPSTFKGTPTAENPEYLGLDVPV

As for `CC#CC(=O)N1CCN(c2ccc3ncnc(Nc4ccc(Oc5ccn6ncnc6c5)c(Cl)c4F)c3n2)CC12CC2` [Example 181, 1-(7-(4-((4-([1,2,4]triazolo[1,5-a]pyridin-7-yloxy)-3-chloro-2-fluorophenyl)amino)pyrido[3,2-d]pyrimidin-6-yl)-4,7-diazaspiro[2.5]octan-4-yl)but-2-yn-1-one], the pIC50 is 7.93 in test [1] (ErbB2 WT enzyme), 7.45 in test [2] (ErbB2 YVMA phosphorylation), 6.06 in test [3] (setting [5]) and 6.26 in test [4] (EGFR enzyme).
The like results for `CC#CC(=O)N1CCN(c2ccc3ncnc(Nc4ccc(Oc5ccn6ncnc6c5)c(Cl)c4F)c3n2)C[C@@H]1C(F)(F)F` [Example 183, (R)-1-(4-(4-((4-([1,2,4]triazolo[1,5-a]pyridin-7-yloxy)-3-chloro-2-fluorophenyl)amino)pyrido[3,2-d]pyrimidin-6-yl)-2-(trifluoromethyl)piperazin-1-yl)but-2-yn-1-one] were, in that order, 8.21, 8.36, 7.10 and 7.13.
The matching figures for `C=CC(=O)N1C[C@H]2C[C@@H]1[C@H](c1ccc3ncnc(Nc4ccc(Oc5ccn6ncnc6c5)c(Cl)c4F)c3n1)C2` [Example 231, 1-((1R,4R,6R)-6-(4-((4-([1,2,4]triazolo[1,5-a]pyridin-7-yloxy)-3-chloro-2-fluorophenyl)amino)pyrido[3,2-d]pyrimidin-6-yl)-2-azabicyclo[2.2.1]heptan-2-yl)prop-2-en-1-one]: 8.00, 8.06, 6.83 and 7.15.
Turning to `C=CC(=O)N1CC[C@@H]2C[C@H]1CN2c1ccc2ncnc(Nc3cc(Cl)c(Oc4cnc5c(c4)ncn5C)cc3F)c2n1` [Example 456], the pIC50 in test [1] (ErbB2 WT enzyme assay) is 6.15; in test [2] (setting [6]), 6.60; in test [3] (setting [7]), not above 5.30; in test [4] (EGFR enzyme assay) it was not above 5.00.
For the compound `C=CC(=O)N1CCN(c2ccc3ncnc(Nc4ccc(Oc5ccn6ncnc6c5)c(Cl)c4F)c3n2)CC1C(F)F` (stereo not drawn) [Example 366], the pIC50 in test [1] (ErbB2 WT enzyme assay) is 8.14; in test [2] (setting [6]), 8.28; in test [3] (setting [7]), 7.45; in test [4] (EGFR enzyme assay), 7.17.
For `C=C(C)c1ccc2ncnc(Nc3ccc(Oc4ccc5c(c4)ncn5C)c(C)c3)c2n1` [Example 24, N-(3-methyl-4-((1-methyl-1H-benzo[d]imidazol-5-yl)oxy)phenyl)-6-(prop-1-en-2-yl)pyrido[3,2-d]pyrimidin-4-amine], the pIC50 in test [1] (ErbB2 WT enzyme) was 6.71; in test [2] (ErbB2 YVMA phosphorylation) it was 7.15; in test [3] (setting [5]), not above 5.30; in test [4] (EGFR enzyme), not above 5.00.
Turning to `C=CC(=O)N1C[C@H](c2ccc3ncnc(Nc4ccc(Oc5ccn6ncnc6c5)c(C)c4F)c3n2)CC1(C)C` (racemic) [Example 296], the pIC50 in test [1] (ErbB2 WT enzyme assay) is 7.23; in test [2] (setting [6]), 7.44; in test [3] (setting [7]), 5.84; in test [4] (EGFR enzyme assay) it was 6.06.
For `C=CC(=O)N1C2CCC1CC(c1ccc3ncnc(Nc4ccc(Oc5ccc6c(c5)ncn6C)c(C)c4)c3n1)C2` (stereo not drawn) [Example 122, 1-(3-(4-((3-methyl-4-((1-methyl-1H-benzo[d]imidazol-5-yl)oxy)phenyl)amino)pyrido[3,2-d]pyrimidin-6-yl)-8-azabicyclo[3.2.1]octan-8-yl)prop-2-en-1-one], the pIC50 in test [1] (ErbB2 WT enzyme) was 8.03; in test [2] (ErbB2 YVMA phosphorylation), 7.89; in test [3] (setting [5]), not above 5.30; in test [4] (EGFR enzyme), 5.41.
As for `C=CC(=O)N1C[C@H]2CC[C@@H]1[C@H](c1ccc3ncnc(Nc4ccc(Oc5ccn6ncnc6c5)c(C)c4F)c3n1)C2` [Example 397], the negative-log IC50 (pIC50) in test [1] (ErbB2 WT enzyme assay) is 8.01; in test [2] (setting [6]), 7.31; in test [3] (setting [7]), not above 5.30; in test [4] (EGFR enzyme assay), 5.95.
For `C=CC(=O)N1[C@H](C)CN(c2ccc3ncnc(Nc4ccc(Oc5ccc6c(c5)ncn6C)c(C)c4F)c3n2)C[C@@H]1C` [Example 115, 1-((2S,6R)-4-(4-((2-fluoro-3-methyl-4-((1-methyl-1H-benzo[d]imidazol-5-yl)oxy)phenyl)amino)pyrido[3,2-d]pyrimidin-6-yl)-2,6-dimethylpiperazin-1-yl)prop-2-en-1-one], the pIC50 in test [1] (ErbB2 WT enzyme) was 7.26; in test [2] (ErbB2 YVMA phosphorylation) it was 7.08; in test [3] (setting [5]) it was not above 5.30; in test [4] (EGFR enzyme), not above 5.00.
For `C=CC(=O)N1CCC(Oc2ccc3ncnc(Nc4ccc(Oc5cnn6ccnc6c5)c(C)c4)c3n2)CC1` [Example 8, 1-(4-((4-((4-(imidazo[1,2-b]pyridazin-7-yloxy)-3-methylphenyl)amino)pyrido[3,2-d]pyrimidin-6-yl)oxy)piperidin-1-yl)prop-2-en-1-one], the pIC50 in test [1] (ErbB2 WT enzyme) is 7.12; in test [2] (ErbB2 YVMA phosphorylation), 7.33; in test [3] (setting [5]), 6.10; in test [4] (EGFR enzyme), 5.87.
For `C=CC(=O)N1C[C@H]2CC[C@@H]1C[C@H]2c1ccc2ncnc(Nc3cc(C)c(Oc4cnc5c(c4)ncn5C)cc3F)c2n1` [Example 421], the negative logarithm of the IC50 (pIC50) in test [1] (ErbB2 WT enzyme assay) was 6.66; in test [2] (setting [6]) it was 7.03; in test [3] (setting [7]), not above 5.30; in test [4] (EGFR enzyme assay), not above 5.00.
For the compound `C=CC(=O)N1CC[C@H]2C[C@@H](c3ccc4ncnc(Nc5ccc(Oc6ccc7c(c6)ncn7C)c(C)c5F)c4n3)C[C@H]21` (racemic) [Example 133, rac-1-((3aR,5R,6aR)-5-(4-((2-fluoro-3-methyl-4-((1-methyl-1H-benzo[d]imidazol-5-yl)oxy)phenyl)amino)pyrido[3,2-d]pyrimidin-6-yl)hexahydrocyclopenta[b]pyrrol-1(2H)-yl)prop-2-en-1-one], the pIC50 is 7.38 in test [1] (ErbB2 WT enzyme), 7.47 in test [2] (ErbB2 YVMA phosphorylation), 5.42 in test [3] (setting [5]) and 5.50 in test [4] (EGFR enzyme).
The matching figures for `C=CC(=O)N1CCC[C@@H](c2ccc3ncnc(Nc4ccc(Oc5ccn6ncnc6c5)c(C)c4F)c3n2)CC1` (single isomer, unassigned) [Example 210]: 7.97, 7.17, not above 5.30 and 5.79.
In the case of `C=CC(=O)N1CCN(c2ccc3ncnc(Nc4ccc(Oc5ccn6ncnc6c5)c(Cl)c4F)c3n2)C[C@H]1C` [Example 91, (R)-1-(4-(4-((4-([1,2,4]triazolo[1,5-a]pyridin-7-yloxy)-3-chloro-2-fluorophenyl)amino)pyrido[3,2-d]pyrimidin-6-yl)-2-methylpiperazin-1-yl)prop-2-en-1-one], the pIC50 in test [1] (ErbB2 WT enzyme) is 8.01; in test [2] (ErbB2 YVMA phosphorylation) it was 8.55; in test [3] (setting [5]) it was 7.25; in test [4] (EGFR enzyme), 6.45.
In the case of `C=CC(=O)N1CCN(c2ccc3ncnc(Nc4ccc(Oc5ccn6ncnc6c5)c(Cl)c4F)c3n2)C[C@@H]1C(F)F` (racemic) [Example 299], the pIC50 is 8.92 in test [1] (ErbB2 WT enzyme assay), 8.39 in test [2] (setting [6]), 7.18 in test [3] (setting [7]) and 7.53 in test [4] (EGFR enzyme assay).
The like results for `C=C(C)C(=O)N1CCN(c2ccc3ncnc(Nc4ccc(Oc5ccn6ncnc6c5)c(C)c4F)c3n2)CC1(C)C` [Example 341] were, in that order, 6.95, 6.28, not above 5.30 and not above 5.00.
For the compound `C=CC(=O)N1CCN(c2ccc3ncnc(Nc4ccc(Oc5ccn6ncnc6c5)c(C)c4F)c3n2)C[C@@H]1C1CC1` [Example 285], the pIC50 in test [1] (ErbB2 WT enzyme assay) is 7.18; in test [2] (setting [6]), 7.47; in test [3] (setting [7]), not above 5.30; in test [4] (EGFR enzyme assay), not above 5.00.

The record behind these values is patent US12447153B2, “HER2 mutation inhibitors” (Array BioPharma Inc., priority 2021, dated 2025).
